# Results reported in patent US20240050400A1, “Use of the Sesquiterpene Lactone Tomentosin in the Treatment of Tumors Caused by Lymphoid Cell Lines” (Universita Degli Studi Di Sassari, priority 2021, published 2024).
# Experiments:
# [1] = test system: MM.1S (of multiple myeloma) cells; test: Cell proliferation (CellTiter-Glo) and cytotoxicity (CellTox Green) test, MM.1S; type: cell-based; conditions: MM.1S cells; for effect on cells (cell proliferation / cell death): 48 hours of treatment
# Description: (§1) The molecules were tested at 7 different concentrations: 50 μM, 25 μM, 12.5 μM, 6.25 μM, 3.125 μM, 1.56 μM, 0.75 μM, in culture with lymphoid tumor (myeloma, lymphoma) cell lines.
# (§2) Tested cell lines: • MM.1S (of multiple myeloma), cultivated in RPMI-1640 medium, 10% FBS, L-Glutamine, AA • RPMI-8226 (of multiple myeloma), cultivated in RPMI-1640 medium, 10% FBS, L-Glutamine, AA; • Raji (of Burkitt lymphoma), cultivated in RPMI-1640 medium, 10% FBS, L-Glutamine, AA; • MRC5 (of pulmonary fibroblasts), cultivated in DMEM medium, 10% FBS, L-Glutamine, AA, Pyruvate Sodium, NEAA.
# (§3) After 48 hours of treatment, drug-induced cellular death was estimated by measuring the intensity of the fluorescence signal after staining the dead cells using a known method (CellTox Green Dye—Promega).
# (§4) Soon afterwards, the number of live cells was evaluated by adding CellTiter Glo P (Promega) reagent, through which the cell lysis and the luminescence signal are directly proportional to the ATP levels in each sample.
# (§5) 24 hours prior to the addition of the compound under examination, the cells resuspended at adequate concentrations were seeded in 384-well flat clear bottom black polystyrene TC-treated microplates (Corning 3764).
# (§6) Each well contained 20 μL of cell suspension. The day after, […] of the molecules under examination, with integrated CellTox (Promega G8731) green dye, were added to each sample to obtain the desired treatment concentrations.
# (§7) The seeding of the cells, the preparation of the serial dilutions, and the addition of the molecules to the cells were performed using an automated liquid pipetting platform (Gilson Pipetmax).
# (§8) 48 hours after the treatment, the intensity of the global green fluorescence in each well was quantified using Biotek Cytation 5. For each sample, four images were taken to cover the whole area of the well. Image merging, processing and background removal were performed using the Gen5 software. Immediately after the fluorescence reading, 30 μL of CellTiter Glo reagent (Promega G7571) just prepared were added to each well, and each sample was mixed 5 times. Ten minutes later, a luminescence reading was taken. Three technical replicates for each condition under examination were plated.
# (§9) CellTiter-Glo is a reagent used for determining the number of viable cells in a culture based on the quantification of ATP, which signals the presence of metabolically active cells.
# (§10) The reagent is added directly to the samples, resulting in cell lysis and generation of a luminescent signal that is proportional to the quantity of ATP. The luminescence signal is quantified using Promega Glo-Max Discover.
# (§11) The CellTox green dye measures the changes that have occurred in the integrity of the membrane following cell death. The test uses a dye which is excluded from viable cells while coloring the DNA of dead cells. When the dye binds to the DNA of the compromised cells, the fluorescent properties of the dye are enhanced, whereas viable cells produce no perceptible increase in fluorescence. Therefore, the fluorescent signal produced by the dye is proportional to cytotoxicity. Fluorescence intensity (GFI) is quantified by means of a Biotek Cytation 5 wide-field automated digital microscope, led cube 465 nm, filter cube excitation 469±25 nm, emission 525±25 nm.
# (§12) Cell viability is calculated as relative cell count (R): […]
# (§13) where T is the number of cells in the treated sample and U is the number of cells in the untreated sample. […]
# [2] = test system: RPMI-8226 (of multiple myeloma) cells; test: Cell proliferation (CellTiter-Glo) and cytotoxicity (CellTox Green) test, RPMI-8226; type: cell-based; conditions: RPMI-8226 cells; for effect on cells (cell proliferation / cell death): 0.75-50 μM, 48 hours of treatment
# Description: The molecules were tested at 7 different concentrations: 50 μ[…], in culture with lymphoid tumor (myeloma, lymphoma) cell lines. Tested cell lines: • MM.1S (of multiple myeloma), cultivated in RPMI-1640 medium, 10% FBS, L-Glutamine, AA • RPMI-8226 (of multiple myeloma), cultivated in RPMI-1640 medium, 10% FBS, L-Glutamine, AA; • Raji (of Burkitt lymphoma), cultivated in RPMI-1640 medium, 10% FBS, L-Glutamine, AA; • MRC5 (of pulmonary fibroblasts), cultivated in DMEM medium, 10% FBS, L-Glutamine, AA, Pyruvate Sodium, NEAA. […] After 48 hours of treatment, drug-induced cellular death was estimated by measuring the intensity of the fluorescence signal after staining the dead cells using a known method (CellTox Green Dye-Promega). Soon afterwards, the number of live cells was evaluated by adding CellTiter Glo P (Promega) reagent, through which the cell lysis and the luminescence signal are directly proportional to the ATP levels in each sample. 24 hours prior to the addition of the compound under examination, the cells resuspended at adequate concentrations were seeded in 384-well flat clear bottom black polystyrene TC-treated microplates (Corning 3764). Each well contained 20 μL of cell suspension. […] The seeding of the cells, the preparation of the serial dilutions, and the addition of the molecules to the cells were performed using an automated liquid pipetting platform (Gilson […]). 48 hours after the treatment, the intensity of the global green fluorescence in each well was quantified using Biotek Cytation 5. […] Immediately after the fluorescence reading, 30 μL of CellTiter Glo reagent (Promega G7571) just prepared were added to each well, and each sample was mixed 5 times. Ten minutes later, a luminescence reading was taken. […] CellTiter-Glo is a reagent used for determining the number of viable cells in a culture based on the quantification of ATP, which signals the presence of metabolically active cells. The reagent is added directly to the samples, resulting in cell lysis and generation of a luminescent signal that is proportional to the quantity of ATP. The luminescence signal is quantified using Promega Glo-Max Discover. […] When the dye binds to the DNA of the compromised cells, the fluorescent properties of the dye are enhanced, whereas viable cells produce no perceptible increase in fluorescence. […] Fluorescence intensity (GFI) is quantified by means of a Biotek Cytation 5 wide-field automated digital microscope, led cube 465 nm, filter cube excitation 469±25 nm, emission 525±25 nm. Cell viability is calculated as relative cell count (R): R=T/U×100 where T is the number of cells in the treated sample and U is the number of cells in the untreated sample. […] Cell death is measured as green fluorescence intensity (GFI).
# [3] = test system: Raji (of Burkitt lymphoma) cells; test: Cell proliferation (CellTiter-Glo) and cytotoxicity (CellTox Green) test, Raji; type: cell-based; conditions: for effect on cells (cell proliferation / cell death): 48 hours of treatment
# Description: as §1, §2, §3, §4, §5, §6, §7, §8, §9, §10, §11, §12, §13
# [4] = test system: MRC5 (of pulmonary fibroblasts) non-tumor cells; test: Cell proliferation (CellTiter-Glo) and cytotoxicity (CellTox Green) test, MRC5 non-tumor control; type: cell-based; conditions: for IC50 relative to the maximum concentration tested: highest tested concentration 50 μM
# Description: The MRC5 cell line was used as a control to evaluate if these molecules were toxic also towards non-tumor cells.
# Soon afterwards, the number of live cells was evaluated by adding CellTiter Glo P (Promega) reagent, through which the cell lysis and the luminescence signal are directly proportional to the ATP levels in each sample. […]
# [5] = test system: aggressive human melanoma cell lines; conditions: cited from earlier work
# [6] = test system: MOLT-4 cell line of human leukemia; conditions: through inhibition of the mTOR/PI3K/Akt signalling pathway; cited from earlier work
# [7] = highest tested concentration 50 μM
SMILES,effect on cells (cell proliferation / cell death) ([1]; 0.75-50 μM),IC50 ([1]; after 72 hours of culture) [µM],effect on cells (cell proliferation / cell death) [2],IC50 ([2]; after 72 hours of culture) [µM],effect on cells (cell proliferation / cell death) ([3]; 0.75-50 μM),IC50 ([3]; after 72 hours of culture) [µM],IC50 relative to the maximum concentration tested [4],anti-proliferative activity ([1]; 0.75-50 μM),"IC50 relative to the maximum concentration tested [1, 7]",pro-apoptotic effect [5],anti-proliferative activity ([3]; 0.75-50 μM),"IC50 relative to the maximum concentration tested [3, 7]",anti-proliferative activity ([4]; 0.75-50 μM),effect on cell proliferation and apoptosis [6]
"N.N.[Cl][Pt][Cl] [cysplatin, Cisplatin]",reduced cell proliferation and increased cell death,12.3,reduced cell proliferation and increased cell death,14.9,reduced cell proliferation and increased cell death,25.7,,,,,,,,
C=C1C(=O)O[C@H]2CC(=C)[C@H]3CC[C@@](C)(O)[C@@H]3C[C@H]12 [Inuvisculide],,,cytostatic effect,,,,> the maximum concentration,low anti-proliferative activity,> the maximum concentration,strong pro-apoptotic effect,low anti-proliferative activity,> the maximum concentration,,
C=C1C(=O)O[C@@H]2C[C@H](C)C(CCC(C)=O)=CC[C@H]12 [Tomentosin],cytotoxic effect,,cytostatic effect,,cytotoxic effect,,> the maximum concentration,,,strong pro-apoptotic effect,,,low anti-proliferative activity,inhibits cell proliferation and induces apoptosis
